“Also recorded” adds a separate entry of the source.
Experiments:
[1] = system: human Th1/Th17 cells; assay: In vitro assay using activated human T-cells differentiated into Th1/Th17 cells; cytokines released in the supernatant; type: cell-based
Experimental: CD4+ T cells were first negatively isolated from human peripheral blood of healthy donors using RosetteSep® separation system from STEMCELL.
Subsequently, CD4+ T cells were activated by crosslinking the cell surface proteins CD3 and CD28 with specific antibodies.
To induce Th1/Th17 differentiation, activated CD4+ T cells were then cultured in flasks at density of 2-5×10^6 cells per ml of culture in X-VIVO 15 serum-free medium in presence of growth and differentiation factors cocktail, containing the following: • rhIL-2 at 10 ng/ml • rhTGF-β at 10 ng/ml • rhIL-1β at 10 ng/ml • rhIL-6 at 10 ng/ml • rhIL-23 at 20 ng/ml • Antibody anti-IL-4 at 1 μg/ml • Antibody anti-IL-13 at 1 μg/ml
Culture media had been refreshed every second day and T cells were cultured up to 5-7 days to allow a complete differentiation into Th1/Th17 cells.
Once the T cells are differentiated into Th1/Th17 cells, cells are rinsed from the differentiation media and placed in assay media (X-VIVO 15 media containing 10 ng/ml rhIL-2 only) at the final concentration of 1-1.5×10^6 cells/ml in wells with 0.250 ml cell suspension per well (0.25-0.375×10^6 cells/well/sample) with and without test compound treatment for 24 hours. At the termination time point, the effect of anti-inflammatory drugs is assessed by measuring the level of phenotype related cytokines released in the cell culture supernatants. Duplicates and cells from different donors are used for each treatment.
After differentiation for 5-6 days, all the cells were carefully washed and placed in growth media containing IL-2 (X-VIVO+10 ng/ml IL-2) at a final concentration of 1-1.5×10^6 cells/ml. […] Assays were performed in duplicates and included undifferentiated human T cells (negative control) and treated or untreated differentiated human Th1/Th17 cells. All cells were cultured under similar conditions in assay media containing 0.1% DMSO with or without test compounds.
Th1/Th17 cells were treated for 24 hours with or without test compounds.
Supernatants were collected from all samples and assessed for cytokine expression (IL-6, IL-8, IL-17, IL-22 and TNF-α). All cytokines were measured (as pg/ml) using MSD kits except IL-22 which was measured by ELISA.
Data analysis and graphs were made in Excel or GraphPad Prism. Statistical analysis was made using 1 way ANOVA corrected by Dunnett's Multiple Comparison Test.

[2] = system: keratinocyte proliferation; conditions: cited from earlier work
[3] = test compound alone, 24 hours, ELISA
[4] = vitamin D analogue 100 nM in combination with Compound A 1 μM
[5] = PDE4 inhibitor 1 μM alone or in combination with calcipotriol 100 nM

CCCNC(=O)COc1c(C(=O)Cc2ccnc(Cl)c2Cl)ccc(OC)c1OC [Compound A, 2-{6-[2-(2,3-dichloropyridin-4-yl)acetyl]-2,3-dimethoxyphenoxy}-N-propylacetamide]
expression of IL-22 ([1]; PDE4 inhibitor 1 μM alone, compared to vehicle treated control): increases
expression of IL-6 ([1]; test compound alone, 24 hours): weakly; also recorded: significantly inhibits
expression of IL-8 ([1]; test compound alone, 24 hours): did not have any effect
expression of IL-17 ([1]; test compound alone, 24 hours): to some degree
expression of TNFα ([1]; test compound alone, 24 hours): strongly decreased; also recorded: significantly inhibits
expression of IL-22 [1, 3]: dose-dependent upregulation; also recorded: increased; also recorded: significantly increases

C=C1/C(=C\C=C2/CCC[C@]3(C)[C@@H]([C@H](C)CC[C@@H](O)C(C)C)CC[C@@H]23)C[C@@H](O)C[C@@H]1O [tacalcitol]
expression of IL-22 [1, 3]: downregulate
expression and secretion of IL-22 [1, 4]: comparable efficacy as Calcipotriol

N#Cc1ccc(Oc2ccc3c(c2)COB3O)cc1 [AN2728, 4-(1-hydroxy-1,3-dihydro-2,1-benzoxaborol-5-yloxy)benzonitrile]
expression and secretion of IL-22 [1, 5]: comparable efficacy to Compound A

C=C1/C(=C\C=C2/CCC[C@]3(C)[C@@H]([C@H](C)OCCC(C)(C)O)CC[C@@H]23)C[C@@H](O)C[C@@H]1O [maxacalcitol]
expression of IL-22 [1, 3]: downregulate
expression and secretion of IL-22 [1, 4]: comparable efficacy as Calcipotriol

O=C(Nc1c(Cl)cncc1Cl)c1ccc(OC(F)F)c(OCC2CC2)c1 [Roflumilast, 3-(cyclopropylmethoxy)-N-(3,5-dichloropyridin-4-yl)4-(difluoromethoxy)benzamide]
expression and secretion of IL-22 [1, 5]: comparable efficacy to Compound A

C=C1/C(=C\C=C2/CCC[C@]3(C)[C@@H]([C@H](C)CCCC(C)(C)O)CC[C@@H]23)C[C@@H](O)C[C@@H]1O [calcitriol]
expression of IL-22 [1, 3]: downregulate
expression and secretion of IL-22 [1, 4]: comparable efficacy as Calcipotriol

CCOc1ccc(-c2nc(-c3cccc(C(=O)O)n3)cs2)cc1OCC [Tetomilast, 6-[2-(3,4-diethoxyphenyl)thiazol-4-yl]pyridine-2-caboxylic acid]
expression and secretion of IL-22 [1, 5]: comparable efficacy to Compound A

C=C1/C(=C\C=C2/CCC[C@]3(C)[C@@H]([C@H](C)/C=C/[C@@H](O)C4CC4)CC[C@@H]23)C[C@@H](O)C[C@@H]1O [calcipotriol, Calcipotriol]
upregulation of IL-22 expression ([1]; calcipotriol 10 pM together with Compound A 1 μM): lost
upregulation of IL-22 expression ([1]; calcipotriol 100 pM together with Compound A 1 μM): inhibited the upregulation
upregulation of IL-22 expression ([1]; calcipotriol 500 pM together with Compound A 1 μM): inhibited the upregulation
upregulation of IL-22 expression ([1]; calcipotriol 1 nM together with Compound A 1 μM): inhibited the upregulation
upregulation of IL-22 expression ([1]; calcipotriol 100 nM together with Compound A 1 μM): inhibited the upregulation
expression of IL-6 ([1]; test compound alone, 24 hours): did not have any effect
expression of IL-8 ([1]; test compound alone, 24 hours): strongly inhibited
expression of IL-17 ([1]; test compound alone, 24 hours): to some extent
expression of TNFα ([1]; test compound alone, 24 hours): did not have any effect
expression of IL-22 [1, 3]: strongly inhibiting; also recorded: downregulate; also recorded: strongly inhibited
expression of IL-22 ([1]; test compound alone, 24 hours, ELISA, listed as Calcipotriol): significantly inhibits
expression of IL-8 ([1]; test compound alone, 24 hours, listed as Calcipotriol): inhibits
expression and secretion of IL-22 ([1]; vitamin D analogue 100 nM alone, compared to vehicle treated control): significantly inhibits
expression and secretion of IL-22 [1, 4]: comparable efficacy as Calcipotriol
concentration required to affect keratinocyte proliferation [2]: 28 nM

COc1cccc(Nc2c(C(N)=O)cnc3c(C)cc(S(=O)(=O)c4cccc(C(=O)N(C)C)c4)cc23)c1.Cl [GSK256066, 6-[3-(N,N-dimethylcarbamoyl)phenylsulfonyl]-4-(3-methoxyphenylamino)-8-methylquinoline-3-carboxamide hydrochloride]
expression and secretion of IL-22 [1, 5]: comparable efficacy to Compound A

— patent publication US9855285B2, “Method of inhibiting the expression of IL-22 in activated T-cells” (LEO PHARMA A/S, priority 2012, dated 2018)
